Experiment [1] relates to CA-755. The experiment can be described thus: In vivo antitumor activity against mouse CA-755 cells. The experiment is classed as functional, organism-based.
For experiment [2], the system named is L1210. Description: In vivo antitumor activity against mouse L1210 cells. Format: functional, organism-based.
Experiment [3] has as its system CCRF S-180. Description: In vivo antitumor activity against mouse S180 cells. Format: functional, organism-based.
Experiment [4] has as its system KB. The experiment can be described thus: Cytotoxicity against human KB cells. The experiment is classed as functional. The settings on record: read-out: ED50 (the source's name).

≈ marks a conversion by molar mass, not a printed value. Calls of active or inactive are those of the source. No rule for the calls is given here. Some results are limits rather than exact numbers.

Consider `COc1ccc([C@@H]2CC(=O)c3c(O)cc(O[C@@H]4O[C@H](CO[C@@H]5O[C@@H](C)[C@H](O)[C@@H](O)[C@H]5O)[C@@H](O)[C@H](O)[C@H]4O)cc3O2)cc1O`, for which the outcome in experiment [1], in experiment [2] and in experiment [3] was inactive.
As to `COc1ccc2c(c1)C(=O)CC(c1ccccc1)O2` (configuration not stated), the result in experiment [1] and in experiment [2] was inactive. The result in experiment [3] was Active.
Take `COc1cc(O)c(C2CC(=O)c3c(O)cc(O[C@@H]4O[C@H](CO[C@@H]5O[C@@H](C)[C@H](O)[C@@H](O)[C@H]5O)[C@@H](O)[C@H](O)[C@H]4O)cc3O2)cc1O` (some centres not stated): the result in experiment [2] was inactive. The EC50 in experiment [4] is over 100 µg/mL.
Regarding `O=c1c(O)c(-c2ccc(Cl)cc2)oc2cc(O)ccc12`, the outcome in experiment [2] and in experiment [3] was inactive.
`COC1(O)C(=O)c2ccccc2OC1(OC)c1ccccc1` (configuration not stated): in experiment [2], the outcome was inactive. Moreover, in experiment [4], the EC50 stood at 34 µg/mL (≈ 113 µM).
On to `O=C1CC(c2ccc(Cl)cc2)Oc2ccccc21` (configuration not stated), for which the result in experiment [1], in experiment [2] and in experiment [3] was inactive.
In the case of `COc1cc2c(c(OC)c1O)C(=O)CC(c1ccc(O)cc1)O2` (configuration not stated), the result in experiment [1], in experiment [2] and in experiment [3] was inactive.
With `COc1ccc(-c2oc3cc(O)cc(O)c3c(=O)c2OC)cc1`, the result in experiment [1] was Active. Also, the result in experiment [2] and in experiment [3] was inactive.
Regarding `COc1ccc(C2CC(=O)c3c(OC(C)=O)cc(OC(C)=O)cc3O2)cc1OC(C)=O` (configuration not stated), the outcome in experiment [1], in experiment [2] and in experiment [3] was inactive.
Regarding `Cc1c(-c2ccccc2)oc2c(C(=O)OCCN3CCCCC3)cccc2c1=O.Cl` [FLAVOXATE HYDROCHLORIDE], in experiment [2], the result was inactive. The EC50 in experiment [4] was over 100 µg/mL.
Regarding `COc1cc2c(c(O[C@@H]3O[C@H](CO)[C@@H](O)[C@H](O)[C@H]3O)c1)C(=O)CC(c1ccc(O)cc1)O2` (some centres not stated), in experiment [4], the EC50 is over 100 µg/mL. Besides, the outcome in experiment [3] was inactive.
With `C[C@@H]1O[C@@H](OC[C@H]2O[C@@H](Oc3cc(O)c4c(c3)OC(c3ccc(O)cc3)CC4=O)[C@H](O)[C@@H](O)[C@@H]2O)[C@H](O)[C@H](O)[C@H]1O` (some centres not stated), the outcome in experiment [3] was inactive.
In the case of `COc1cc(C2CC(=O)c3ccccc3O2)ccc1O` (configuration not stated), the outcome in experiment [2] and in experiment [3] was inactive.
`O=c1cc(-c2ccc(O)cc2)oc2cc(O[C@@H]3O[C@H](CO)[C@@H](O)[C@H](O)[C@H]3O)cc(O)c12` [APIGETRIN]: the EC50 in experiment [4] is over 100 µg/mL. In experiment [3], the outcome was inactive.
Take `O=c1cc(-c2ccccc2)oc2c(F)cc(F)cc12`: the outcome in experiment [2] and in experiment [3] was inactive. In experiment [4], the EC50 is 15 µg/mL (≈ 58.1 µM).
For the compound `O=C1CC(c2ccccc2Cl)Oc2ccccc21` (configuration not stated), the result in experiment [1], in experiment [2] and in experiment [3] was inactive.
For the compound `O=C1C[C@@H](c2ccc(O)cc2)Oc2cc(O)cc(O)c21`, the outcome in experiment [2] and in experiment [3] was inactive.
Regarding `COc1ccc(C2CC(=O)c3c(cc(OC)c(OC)c3OC)O2)cc1` (configuration not stated), the result in experiment [1], in experiment [2] and in experiment [3] was inactive.
For `O=c1cc(-c2ccccc2)oc2ccccc12`, the outcome in experiment [1], in experiment [2] and in experiment [3] was inactive.
Consider `O=C1c2ccccc2OC(c2ccccc2)C1Cl` (configuration not stated), for which the outcome in experiment [1] and in experiment [3] was inactive.
On to `COc1cc(O)c2c(=O)c(O)c(-c3ccc(O)c(O)c3)oc2c1`, for which the outcome in experiment [1], in experiment [2] and in experiment [3] was inactive.
As to `CCOc1ccc(-c2cc(=O)c3c(OC)c(OC)c(OC)c(OC)c3o2)cc1`, the outcome in experiment [2] and in experiment [3] was inactive. In addition, the EC50 in experiment [4] came to 30 µg/mL (≈ 77.6 µM).
As for `COc1ccc(C2CC(=O)c3ccccc3O2)cc1` (configuration not stated), the outcome in experiment [1], in experiment [2] and in experiment [3] was inactive.
Consider `O=c1cc(-c2ccc(O)cc2)oc2ccccc12`, for which the outcome in experiment [1], in experiment [2] and in experiment [3] was inactive.
`COc1cc(OC)c(-c2cc(=O)c3ccccc3o2)cc1Br`: the result in experiment [1] and in experiment [3] was inactive.
In the case of `CS(=O)(=O)Nc1c(-c2ccccc2)oc2ccccc2c1=O`, in experiment [4], the EC50 amounted to 10 µg/mL (≈ 31.7 µM). In experiment [3], the result was inactive.
On to `O=C1c2cc(Cl)ccc2OC(Cl)(c2ccc(Cl)cc2)C1Cl` (configuration not stated), for which the result in experiment [3] was inactive.
`COc1ccc([C@@H]2CC(=O)c3c(O)cc(O)cc3O2)cc1O`: the outcome in experiment [1], in experiment [2] and in experiment [3] was inactive.
For the compound `COc1ccc(-c2oc3cc(OC(C)=O)cc(OC(C)=O)c3c(=O)c2OC)cc1`, the result in experiment [1] was Active. The result in experiment [2] and in experiment [3] was inactive.
For the compound `COc1ccc(C2CC(=O)c3cc(OC)ccc3O2)cc1` (configuration not stated), the result in experiment [1], in experiment [2] and in experiment [3] was inactive.
With `COc1ccc(C2CC(=O)c3ccccc3O2)cc1OC` (configuration not stated), the outcome in experiment [1], in experiment [2] and in experiment [3] was inactive.
For the compound `O=c1cc(-c2cccc(O)c2)oc2ccccc12`, the outcome in experiment [2] was inactive. The EC50 in experiment [4] was 8.5 µg/mL (≈ 35.7 µM).
Regarding `Cc1cc(C)c(-c2oc3ccc(Cl)cc3c(=O)c2Cl)c(C)c1`, the EC50 in experiment [4] was over 100 µg/mL. In addition, in experiment [3], the outcome was Active.
Turning to `CS(=O)(=O)NC1C(=O)c2ccccc2OC1c1ccccc1` (configuration not stated), the result in experiment [2] and in experiment [3] was inactive. Further, in experiment [4], the EC50 was found to be 10 µg/mL (≈ 31.5 µM).
As for `COc1c(O)cc2oc(-c3ccc(O)cc3)cc(=O)c2c1O` [HISPIDULIN], the EC50 in experiment [4] was 22 µg/mL (≈ 73.3 µM).
Regarding `COc1ccc(C2Oc3ccccc3C(=O)C2N)cc1.Cl` (configuration not stated), in experiment [4], the EC50 is over 100 µg/mL. The outcome in experiment [3] was inactive.
With `Cc1ccc(C(C)C)c(-c2oc3ccc(Cl)cc3c(=O)c2Cl)c1`, the EC50 in experiment [4] turned out to be 60 µg/mL (≈ 173 µM).
`COc1ccc(-c2oc3cc(O)c(O)c(O)c3c(=O)c2O)cc1OC`: in experiment [4], the EC50 amounted to 27 µg/mL (≈ 78 µM).
Consider `COc1ccc2c(=O)c(C)c(-c3ccccc3)oc2c1CN(C)C.Cl` [DIMEFLINE HYDROCHLORIDE], for which the result in experiment [2] was inactive. For the same compound, the EC50 in experiment [4] stood at 22 µg/mL.
Turning to `O/N=c1/cc(-c2ccccc2)oc2ccccc12`, the outcome in experiment [2] and in experiment [3] was inactive.
`COc1ccc2c(=O)c(O)c(-c3ccccc3)oc2c1`: the EC50 in experiment [4] is 26 µg/mL (≈ 96.9 µM).
`Cc1c(O)cc2c(c1O)C(=O)CC(c1ccc(O)cc1)O2` (configuration not stated): the result in experiment [2] was inactive. For the same compound, the EC50 in experiment [4] came out at 57 µg/mL (≈ 199 µM).

(Values after ChEMBL document CHEMBL1151292, “Antineoplastic activity and cytotoxicity of flavones, isoflavones, and flavanones” (1979).)
